A short description of experiment [1]: Immunomodulatory effects of homologs of the β3 peptide.
Experiment [2] relates to LP-BM5 retrovirus. The experiment is described as follows: Spleen weight in LP-BM5 retrovirus-infected mice. The class given is in vivo, C57BL/6 mice. The settings on record: 200 μg peptide intraperitoneally two and six weeks after infection, relative to untreated infected animals. The text has this: FIG. 1. Spleen weight. The spleen weights were substantially (p<0.05) elevated in the infected mice relative to the uninfected animals. […] “a” indicates significant differences at p<0.05 compared with uninfected saline treatment.
(§1) Female C57BL/6 mice, four weeks old, were obtained from the Charles River Laboratories Inc. (Wilmington, Del.). Animals were cared for as required by the University of Arizona Committee on Animal Research. After two weeks housing in the Central Animal Facility, University of Arizona, they were randomly assigned to one of the following treatment groups: uninfected normal mice (four mice); LP-BM5-infected mice treated with saline (pyrogen free; six mice); LP-BM5-infected mice treated with 200 μg TCR Vβ3 monomer peptide (six mice); LP-BM5-infected mice treated with 200 μg TCR Vβ3 dimer peptide (six mice). […] Intraperitoneal administration of monomer and dimer peptides (dissolved in saline) was performed two and six weeks after LP-BM5 infection. Infection to of these mice with LP-BM5 retrovirus leads to the rapid induction of clinical symptoms with virtually no latent phase.

The test system of experiment [3] is splenocyte B cells. The experiment is described as follows: LPS-stimulated splenocyte proliferation (B cells) of LP-BM5-infected mice. The settings on record: 200 μg/mouse, vs infected saline group. The class given is in vivo, C57BL/6 mice.
Text: FIG. 3. LPS-stimulated splenocyte proliferation. […] “a” indicates significant differences at p<0.05 compared with uninfected saline treatment group. “b” indicates significant differences at […] compared with infected saline treatment group.
as §1

For experiment [4], the system named is splenocyte T cells. The experiment is described as follows: Con A-stimulated splenocyte proliferation (T cells) of LP-BM5-infected mice. The note with it: 200 μg/mouse, vs infected saline group. The class given is in vivo, C57BL/6 mice.
Text: FIG. 2. Con A-stimulated splenocyte proliferation. […] “a” indicates significant differences at p<0.05 compared with uninfected saline treatment group. “b” indicates significant differences at p<0.05 compared with infected saline treatment group.
as §1

The subject of experiment [5] is aged mice. The settings on record: injection of peptide, not highly dimerised; cited from earlier work.
Experiment [6] concerns IL-6. As to the kind of experiment: Interleukin-6 production of splenocyte of LP-BM5-infected mice. The experiment is classed as in vivo, C57BL/6 mice. The settings on record: 200 μg/mouse, mitogen-stimulated splenocytes, vs infected saline group.
Text: FIG. 7. Interleukin-6 production of splenocyte. […] “a” indicates significant differences at p<0.05 compared with uninfected saline treatment group. “b” indicates significant differences at p<0.05 compared with infected saline treatment group.
as §1

For experiment [7], the system named is IFN-γ. As to the kind of experiment: IFN-γ production of splenocyte of LP-BM5-infected mice. The experiment is classed as in vivo, C57BL/6 mice. The settings on record: 200 μg/mouse, vs infected saline group.
Text: FIG. 5. IFN-γ production of splenocyte. […] “a” indicates significant differences at P <0.05 compared with uninfected saline treatment group. “b” indicates significant differences at P<0.05 compared with infected saline treatment group.
as §1

Experiment [8] deals with IL-2. As to the kind of experiment: IL-2 production of splenocyte of LP-BM5-infected mice. The settings on record: 200 μg/mouse, vs infected saline group. The class given is in vivo, C57BL/6 mice.
Text: FIG. 4. IL-2 production of splenocyte. […] “a” indicates significant differences at p<0.05 compared with uninfected saline treatment group. “b” indicates significant differences at p<0.05 compared with infected saline treatment group.
as §1

The test system of experiment [9] is IL-4. As to the kind of experiment: Interleukin-4 production of splenocyte of LP-BM5-infected mice. The experiment is classed as in vivo, C57BL/6 mice. The note with it: 200 μg/mouse, mitogen-stimulated splenocytes, vs infected saline group.
Text: FIG. 6. Interleukin-4 production of splenocyte. […] “a” indicates significant differences at P<0.05 compared with uninfected saline treatment group, “b” indicates significant differences at P<0.05 compared with infected saline treatment group.
as §1

Positions of bridges follow the written chain, without caps; N, C: chain ends. Chains are numbered I, II in the order given. No end group written: not given here.

Regarding “C S P K S G H D T V S W Y Q Q A (CSPKSGHDTVSWYQQA) [Pep Vβ5.2]”, the “Immunomodulatory effects compared with the β3 peptide” value in experiment [1] was “Active”.

For the substance “CKPISGHNSLFWYRQT [TCR Vβ3 monomer, 16-mer TCR Vβ CDR1 peptide of T-cell receptor β chain clone YT35, monomer form, reference compound]”, in experiment [2], the “Spleen weight (splenomegaly)” value is on record as “significant reduction in spleen weight”. In [3], the “LPS-stimulated splenocyte proliferation (B cell proliferation)” value is on record as “significantly (p<0.05) prevented the suppression of T-cell proliferation”. For the same substance, the “Con A-stimulated splenocyte proliferation (T-cell proliferation)” value in experiment [4] is “significantly (p<0.05) prevented the suppression of T-cell proliferation”. Also, the Immunosenescence entry in experiment [5] is reported as “reduces immunosenescence in aged mice”. Besides, the “Interleukin-6 production of splenocyte” value in [6] was “significantly (p<0.05) normalized IL-6”. Besides, the “IFN-γ production of splenocyte” value in experiment [7] is “significantly (p<0.05) normalized IFN-γ production”. Besides, the “IL-2 production of splenocyte” value in [8] is “significantly (p<0.05) normalized IL-2 production”.

In the case of “TCR Vβ3 dimer: homodimer of two SEQ ID NO:1 peptide monomers, formed through a disulphide bond at the N-terminal cysteine (chain 1 CKPISGHNSLFWYRQT; chain 2 CKPISGHNSLFWYRQT; disulfide I:1-II:1)”, the figures for the “Spleen weight (splenomegaly)” value in experiment [2] and in experiment [2] (listed as Vβ3 peptide dimers) were “significant reduction in spleen weight” and “at least as effective as the monomer”, respectively. The “Interleukin-4 production of splenocyte” value in experiment [9] was “significantly (p<0.05) normalized IL-4”; in [9] (listed as Vβ3 peptide dimers), “at least as effective as the monomer”. Also, the entries for the “LPS-stimulated splenocyte proliferation (B cell proliferation)” value in experiment [3] and in [3] (listed as Vβ3 peptide dimers) were “significantly (p<0.05) prevented the suppression of T-cell proliferation” and “at least as effective as the monomer”, respectively. Besides, the results for the “Con A-stimulated splenocyte proliferation (T-cell proliferation)” value in [4] and in experiment [4] (listed as Vβ3 peptide dimers) were “significantly (p<0.05) prevented the suppression of T-cell proliferation” and “at least as effective as the monomer”, respectively. Besides, the “Interleukin-6 production of splenocyte” value in experiment [6] was “at least as effective as the monomer”. The entries for the “IFN-γ production of splenocyte” value in [7] and in [7] (listed as Vβ3 peptide dimers) were “significantly (p<0.05) normalized IFN-γ production” and “at least as effective as the monomer”, respectively.
